Data reported in PubChem BioAssay (NCI).
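At the GI50, growth is halved. TGI: total growth inhibition.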

Experiments:
Assay in all cases: growth of human tumour cells (NCI), 384-well format
[1] = system: TK-10 renal
[2] = system: SF-539 CNS
[3] = system: MALME-3M melanoma
[4] = system: SK-OV-3 ovarian
[5] = system: SK-MEL-5 melanoma
[6] = system: NCI-H322M lung
[7] = system: NCI/ADR-RES ovarian
[8] = system: HOP-62 NSCLC
[9] = system: UACC-62 melanoma
[10] = system: MDA-MB-231 breast
[11] = system: HL-60(TB) leukemia
[12] = system: IGROV1 ovarian
[13] = system: MCF7 breast
[14] = system: MDA-MB-468 breast
[15] = system: HS 578T breast
[16] = system: COLO 205 colon
[17] = system: SNB-75 CNS
[18] = system: MOLT-4 leukemia
[19] = system: SF-268 CNS
[20] = system: CAKI-1 renal
[21] = system: A498 renal
[22] = system: NCI-H23 lung
[23] = system: PC-3 prostate
[24] = system: DU-145 prostate
[25] = system: SNB-19 CNS
[26] = system: T-47D breast
[27] = system: RPMI-8226 leukemia
[28] = system: RXF 393 renal
[29] = system: OVCAR-4 ovarian
[30] = system: SR leukemia
[31] = system: MDA-MB-435 melanoma
[32] = system: HOP-92 NSCLC
[33] = system: KM12 colon
[34] = system: ACHN renal
[35] = system: SF-295 CNS
[36] = system: SW-620 colon
[37] = system: 786-0 renal
[38] = system: M14 melanoma
[39] = system: NCI-H460 NSCLC
[40] = system: U251 glioblastoma
[41] = system: A549 NSCLC
[42] = system: EKVX NSCLC
[43] = system: CCRF-CEM leukemia
[44] = system: OVCAR-8 ovarian
[45] = system: OVCAR-3 ovarian
[46] = system: UACC-257 melanoma
[47] = system: NCI-H522 lung
[48] = system: HCT-15 colon
[49] = system: HT29 colon
[50] = system: BT-549 breast
[51] = system: NCI-H226 lung
[52] = system: SK-MEL-28 melanoma
[53] = system: SK-MEL-2 melanoma
[54] = system: SN12C renal
[55] = system: OVCAR-5 ovarian

In the case of COc1ccc(-c2ccc(/C=C/C(=O)NO)cc2)cc1, the GI50 [1] is reported as 1820 nM, the TGI [1] is reported as 7230 nM and the GI50 [2] is reported as 525 nM. It also gave a TGI [2] of 2200 nM, a GI50 [3] of 1180 nM and a TGI [3] of 3920 nM. For the same molecule, the GI50 [4] was 349 nM, the TGI [4] was 1560 nM and the GI50 [5] was 421 nM. For the same molecule, the TGI [5] was 1580 nM, the GI50 [6] was 3100 nM and the TGI [6] was 33300 nM. The GI50 [7] was 527 nM, the TGI [7] was 1620 nM and the GI50 [8] was 760 nM. The TGI [8] was 2580 nM, the GI50 [9] was 1930 nM and the TGI [9] was 4350 nM. It also gave a GI50 [10] of 391 nM, a TGI [10] of 1730 nM and a GI50 [11] of 255 nM. It also gave a TGI [11] of 524 nM, a GI50 [12] of 1680 nM and a TGI [12] of 5020 nM. The GI50 [13] was 1410 nM, the TGI [13] was 4280 nM and the GI50 [14] was 292 nM. For the same molecule, the TGI [14] was 578 nM, the GI50 [15] was 2850 nM and the TGI [15] was 9630 nM. For the same molecule, the GI50 [16] was 3310 nM, the TGI [16] was 6560 nM and the GI50 [17] was 466 nM. The TGI [17] was 4640 nM, the GI50 [18] was 166 nM and the TGI [18] was 329 nM. The GI50 [19] was 967 nM, the TGI [19] was 2870 nM and the GI50 [20] was 1750 nM. The TGI [20] was 5590 nM, the GI50 [21] was 1860 nM and the TGI [21] was 11200 nM. The GI50 [22] was 728 nM, the TGI [22] was 2340 nM and the GI50 [23] was 818 nM. It also gave a TGI [23] of 9740 nM, a GI50 [24] of 1300 nM and a TGI [24] of 3540 nM. For the same molecule, the GI50 [25] was 2520 nM, the TGI [25] was 11900 nM and the GI50 [26] was 1400 nM. It also gave a TGI [26] of 5260 nM, a GI50 [27] of 262 nM and a TGI [27] of 548 nM. The GI50 [28] was 298 nM, the TGI [28] was 1130 nM and the GI50 [29] was 284 nM. The TGI [29] was 12200 nM, the GI50 [30] was 195 nM and the TGI [30] was 368 nM. For the same molecule, the GI50 [31] was 4260 nM, the TGI [31] was 64700 nM and the GI50 [32] was 986 nM. The TGI [32] was 4190 nM, the GI50 [33] was 1510 nM and the TGI [33] was 16000 nM. For the same molecule, the GI50 [34] was 2100 nM, the TGI [34] was 4230 nM and the GI50 [35] was 2840 nM. For the same molecule, the TGI [35] was 14200 nM, the GI50 [36] was 1820 nM and the TGI [36] was 10200 nM. For the same molecule, the GI50 [37] was 1140 nM, the TGI [37] was 3650 nM and the GI50 [38] was 1450 nM. The TGI [38] was 3280 nM, the GI50 [39] was 626 nM and the TGI [39] was 2500 nM. It also gave a GI50 [40] of 1190 nM, a TGI [40] of 2850 nM and a GI50 [41] of 431 nM. For the same molecule, the TGI [41] was 11600 nM, the GI50 [42] was 2280 nM and the TGI [42] was 11400 nM. It also gave a GI50 [43] of 128 nM, a TGI [43] of 258 nM and a GI50 [44] of 562 nM. For the same molecule, the TGI [44] was 2120 nM, the GI50 [45] was 237 nM and the TGI [45] was 531 nM. It also gave a GI50 [46] of 1380 nM, a TGI [46] of 8800 nM and a GI50 [47] of 373 nM. For the same molecule, the TGI [47] was 1480 nM, the GI50 [48] was 332 nM and the TGI [48] was 2730 nM. The GI50 [49] was 2720 nM, the TGI [49] was 16300 nM and the GI50 [50] was 624 nM. It also gave a TGI [50] of 3510 nM, a GI50 [51] of 457 nM and a TGI [51] of 2410 nM. The GI50 [52] was 2600 nM, the TGI [52] was 7200 nM and the GI50 [53] was 472 nM. For the same molecule, the TGI [53] was 1140 nM, the GI50 [54] was 1290 nM and the TGI [54] was 3810 nM. It also gave a GI50 [55] of 1940 nM and a TGI [55] of 5930 nM.
